Here are results for three compounds from patent US8076342B2, “Malonate salt of 4-((1R,3S)-6-chloro-3-phenylindan-1-yl)-1,2,2-trimethylpiperazine and uses of same” (priority 2003, dated 2011).

Series [1] is described as follows: Hygroscopicity by Dynamic Vapour sorption (DVS). The series is classed as physicochemical. The source says: The hygroscopicity of the fumarate salt, the succinate salt (the alpha form) and the malonate salt was investigated by Dynamic Vapour sorption (DVS). […] The malonate absorbs gradually up to 1% of water when the relative humidity is raised to 95%, but with no hysteresis.

For the next series, the system named is dopamine D1 receptor. The conditions noted are these: cited from earlier work.
A further series deals with D1 and D2. The note with it: cited from earlier work.
The next series has as its system rats. The conditions noted are these: cited from earlier work.
Another series deals with dopamine D2 receptor (Homo sapiens, UniProt P14416). The note with it: cited from earlier work.
Sequence of dopamine D2 receptor (P14416 whole entry, species assumed): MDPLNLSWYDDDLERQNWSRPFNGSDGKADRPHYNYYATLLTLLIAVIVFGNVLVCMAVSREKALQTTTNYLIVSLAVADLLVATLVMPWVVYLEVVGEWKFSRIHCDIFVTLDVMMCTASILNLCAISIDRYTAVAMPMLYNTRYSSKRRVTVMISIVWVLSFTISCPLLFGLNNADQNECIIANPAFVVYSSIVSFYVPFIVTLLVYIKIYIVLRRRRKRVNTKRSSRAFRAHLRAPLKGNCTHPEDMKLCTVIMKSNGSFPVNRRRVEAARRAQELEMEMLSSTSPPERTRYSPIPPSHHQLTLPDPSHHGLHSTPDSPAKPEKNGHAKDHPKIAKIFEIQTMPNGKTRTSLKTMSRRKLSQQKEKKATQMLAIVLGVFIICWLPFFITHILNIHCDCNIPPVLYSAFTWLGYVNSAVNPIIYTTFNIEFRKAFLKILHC
The next series concerns 5-HT2 receptor. The conditions noted are these: cited from earlier work.
Series [2] can be described thus: Stability of the salts (heat/humidity, heat, light; HPLC impurity peak area). Format: physicochemical. Here is the method: The stability of the salts was investigated under the following circumstances:
Heat, 60° C./80% RH: Samples were stored at 60° C. with 80% RH for one week. Then they were dissolved and analysed by HPLC.
Heat, 90° C.: Samples (˜10 mg) were stored at 90° C. in closed containers containing 1 droplet of water. Then they were dissolved and analysed by HPLC.
Light: Samples were placed in the light cabinet at 250 w/m^2 for 24 hours. Then they were dissolved and analysed by HPLC.
The area of peaks in the chromatograms besides the peaks corresponding to the substance or the acid was summarized.

Setting [3] is: 90° C., closed containers containing 1 droplet of water.

Entries after “also recorded” stand apart in the source; their conditions may differ.

Regarding `CN1CCN([C@@H]2C[C@@H](c3ccccc3)c3ccc(Cl)cc32)CC1(C)C.O=C(O)/C=C/C(=O)O` (relative stereo) [Fumarate, trans-4-((1R,3S)-6-chloro-3-phenylindan-1-yl)-1,2,2-trimethylpiperazinium (I) hydrogen fumarate], the Hygroscopicity entry in series [1] (DVS) was “non-hygroscopic”. For the same compound, the D1 antagonist potency entry in the series with dopamine D1 receptor is reported as “potent”. Moreover, in the series with D1 and D2, the “D1 versus D2 antagonist potency in vivo” value is “equipotent”. Further, the Induction of catalepsy result in the series with rats is recorded as “does not induce catalepsy”. Besides, the D2 antagonist potency entry at dopamine D2 receptor is reported as “potent”. The 5-HT2 antagonist potency entry with 5-HT2 receptor was “potent”. The “Sum of impurity peak area %” value came out at 0.07% in series [2] (60° C./80% RH, one week); 0.09% in series [2] (setting [3]); 0.06% in series [2] (Light, 250 w/m^2 for 24 hours).
On to `CN1CCN([C@@H]2C[C@@H](c3ccccc3)c3ccc(Cl)cc32)CC1(C)C.O=C(O)CC(=O)O` (relative stereo) [Malonate 1:1, trans-4-((1R,3S)-6-chloro-3-phenylindan-1-yl)-1,2,2-trimethylpiperazinium (I) hydrogen malonate], for which the Hygroscopicity entry in series [1] (DVS) is “non-hygroscopic”. For the same compound, the “Hysteresis of water sorption” value in series [1] (DVS) is “no hysteresis; also recorded: no hysterhesis”. In addition, the Water absorbed result in series [1] (relative humidity raised to 95%) is reported as “up to 1%”. The “Sum of impurity peak area %” value is on record as 0% in series [2] (60° C./80% RH, one week); 6.19% in series [2] (setting [3]); 0.06% in series [2] (Light, 250 w/m^2 for 24 hours). For the same compound, the entries for the “Stability compared with the fumarate salt” value in series [2] (60° C./80% relative humidity (RH)), in series [2] (90° C.) and in series [2] (exposed to light) were “more stable”, “less stable” and “similar”, respectively.
Regarding `CN1CCN([C@@H]2C[C@@H](c3ccccc3)c3ccc(Cl)cc32)CC1(C)C.O=C(O)CCC(=O)O` (relative stereo) [Succinate 1:1 alpha, trans-4-((1R,3S)-6-chloro-3-phenylindan-1-yl)-1,2,2-trimethyl-piperazinium (I) hydrogen succinate], the Hygroscopicity entry in series [1] (DVS) was “non-hygroscopic”. In series [2], the “Stability compared with the fumarate salt and the hydrogen malonate salt” value is “more stable”. In addition, the “Sum of impurity peak area %” value is recorded as 0% in series [2] (60° C./80% RH, one week); 0% in series [2] (setting [3]); 0% in series [2] (Light, 250 w/m^2 for 24 hours). The Degradation result in series [2] (all stability conditions) is listed as “does not show any degradation at all”.
